Results on four molecules are retold here after paper PMC2765170 (PLoS ONE, 2009).

Data set [1] concerns the target CoaE (M. tuberculosis dephosphocoenzyme A kinase, Rv1631) (Mycobacterium tuberculosis, UniProt P9WPA3). Kind of data set: biochemical. It is filed as binding. Conditions: read-out: Ka (M^-1*104) (converted).
Data set [2] has as its system Nc1ncnc2c1ncn2[C@H]1C[C@H](O)[C@@H](COP(=O)(O)OP(=O)(O)OP(=O)(O)O)O1. Briefly: purified protein. The note with it: alternate phosphate donor, co-substrate DCoA.
In data set [3] the test system is Nc1ncnc2c1ncn2[C@@H]1O[C@H](COP(=O)(O)OP(=O)(O)OP(=O)(O)O)[C@@H](O)[C@H]1O. Kind of data set: purified protein. The note with it: co-substrate DCoA, MgCl2, 25°C.
Data set [4] deals with CC(C)(COP(=O)(O)OP(=O)(O)OC[C@H]1O[C@@H](n2cnc3c(N)ncnc32)[C@H](O)[C@@H]1O)[C@@H](O)C(=O)NCCC(=O)NCCS. Kind of data set: purified protein. The note with it: co-substrate ATP, MgCl2, 25°C.

CoaE (M. tuberculosis dephosphocoenzyme A kinase, Rv1631), sequence (P9WPA3 whole entry): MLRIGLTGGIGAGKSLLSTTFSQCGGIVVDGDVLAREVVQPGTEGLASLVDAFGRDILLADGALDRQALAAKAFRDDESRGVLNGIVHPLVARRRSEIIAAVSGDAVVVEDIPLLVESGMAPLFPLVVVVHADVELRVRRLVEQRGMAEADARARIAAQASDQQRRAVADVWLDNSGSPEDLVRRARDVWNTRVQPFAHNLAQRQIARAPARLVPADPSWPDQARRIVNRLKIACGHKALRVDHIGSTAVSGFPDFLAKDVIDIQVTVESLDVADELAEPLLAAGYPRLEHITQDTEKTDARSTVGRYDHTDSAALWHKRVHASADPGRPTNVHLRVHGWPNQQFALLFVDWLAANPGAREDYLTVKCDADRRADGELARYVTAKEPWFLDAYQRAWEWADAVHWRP

In the case of `Nc1ncnc2c1ncn2[C@H]1C[C@H](O)[C@@H](COP(=O)(O)OP(=O)(O)OP(=O)(O)O)O1` [dATP], the Kd in data set [1] was 57.5 µM.
As to “CoaE (M. tuberculosis dephosphocoenzyme A kinase, Rv1631) (Mycobacterium tuberculosis H37Rv)”, the results for the Michaelis constant (Km) in data set [2], in data set [3] and in data set [4] were 320 µM, 56.8 µM and 34.9 µM, respectively.
For the molecule `Nc1ncnc2c1ncn2[C@@H]1O[C@H](COP(=O)(O)OP(=O)(O)O)[C@@H](O)[C@H]1O` [ADP], the Kd in data set [1] is 49.3 µM.
For `Nc1ccn([C@@H]2O[C@H](COP(=O)(O)OP(=O)(O)OP(=O)(O)O)[C@@H](O)[C@H]2O)c(=O)n1` [CTP], the Kd in data set [1] is 62.9 µM.
